Reference: US4277479A, “Tetrazolylalkoxycarbostyril derivatives and pharmaceutical compositions containing them” (Otsuka Pharmaceutical Co., Ltd., priority 1978, dated 1981)

How the values were obtained:
[1] = target: T1, cyclic AMP phosphodiesterase (Oryctolagus cuniculus, UniProt G1ST54); experiment: Obstructive action against cyclic AMP phosphodiesterase; assay type: biochemical, rabbit; details: 0.4 μmol cyclic AMP, read-out: Phosphodiesterase obstruction rate
T1 construct: the supernatant was collected to use it as a crude enzyme solution; from tissue; host or cells: rabbit platelets (from platelet-rich plasma)
T1 sequence (G1ST54 1-1128): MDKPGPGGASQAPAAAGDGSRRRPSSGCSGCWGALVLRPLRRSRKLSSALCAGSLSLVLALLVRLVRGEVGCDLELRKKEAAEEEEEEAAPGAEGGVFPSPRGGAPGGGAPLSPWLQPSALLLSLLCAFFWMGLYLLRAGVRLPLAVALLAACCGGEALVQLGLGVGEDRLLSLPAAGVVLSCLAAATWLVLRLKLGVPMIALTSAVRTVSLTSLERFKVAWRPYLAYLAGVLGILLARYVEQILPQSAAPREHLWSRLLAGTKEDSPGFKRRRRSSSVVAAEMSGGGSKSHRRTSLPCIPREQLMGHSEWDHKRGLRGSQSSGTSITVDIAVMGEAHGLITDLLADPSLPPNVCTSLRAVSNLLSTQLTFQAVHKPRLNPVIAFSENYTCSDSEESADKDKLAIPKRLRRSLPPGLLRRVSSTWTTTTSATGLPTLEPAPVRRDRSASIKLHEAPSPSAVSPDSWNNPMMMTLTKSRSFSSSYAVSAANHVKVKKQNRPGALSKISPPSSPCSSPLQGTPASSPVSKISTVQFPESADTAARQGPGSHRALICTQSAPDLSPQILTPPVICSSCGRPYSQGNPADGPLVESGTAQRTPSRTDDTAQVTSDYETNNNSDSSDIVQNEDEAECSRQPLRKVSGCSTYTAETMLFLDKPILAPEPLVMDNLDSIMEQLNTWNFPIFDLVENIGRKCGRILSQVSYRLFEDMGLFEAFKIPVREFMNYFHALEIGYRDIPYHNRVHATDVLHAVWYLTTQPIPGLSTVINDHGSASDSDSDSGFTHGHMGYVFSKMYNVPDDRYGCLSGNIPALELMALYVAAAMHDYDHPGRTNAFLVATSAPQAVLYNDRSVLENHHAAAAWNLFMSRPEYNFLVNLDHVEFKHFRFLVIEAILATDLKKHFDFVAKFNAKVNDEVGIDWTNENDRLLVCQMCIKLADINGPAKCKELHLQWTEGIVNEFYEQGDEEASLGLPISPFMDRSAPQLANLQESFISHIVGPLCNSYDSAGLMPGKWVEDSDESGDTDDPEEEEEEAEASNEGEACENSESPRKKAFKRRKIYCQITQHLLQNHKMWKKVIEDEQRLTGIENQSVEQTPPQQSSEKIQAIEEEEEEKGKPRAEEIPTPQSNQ
Method: (Test of obstructive action against cyclic AMP phosphodiesterase)
The obstructive action against cyclic AMP phosphodiesterase was measured according to the activity measuring method described in "Biochimica et Biophysica Acta", Vol. 429, pp. 485-497 (1976) and "Biochemical Medicine", Vol. 10, pp. 301-311 (1974).
That is, for determining the obstructive activity against cyclic AMP phosphodiesterase, 10 ml of a solution obtained by adding 1 mmol of MgCl2 into 50 mmol of tris-hydrochloric acid buffer with pH 7.4 was added to the platelets obtained by further centrifuging the above-said rabbit PRP at 3,000 r.p.m. for 10 minutes, and the suspended platelets were ground by a Teflon potter type homogenizer. This was followed by two times of freezing and thawing treatment and 300-second fracturing with 200 watt supersonic waves. After additional 60-minute centrifugation with 100,000 g, the supernatant was collected to use it as a crude enzyme solution.
10 Milliliters of this crude buffer solution was added to a 1.5×20 cm DEAE-cellulose column which has previously been buffered with 50 mmol of tris-acetate buffer (pH 6.0), followed by washing and elution with 30 ml of 50 mmol tris-acetate buffer, and this buffer solution was subjected to linear gradient elution with 0 to 1 moles of sodium acetate-tris-acetate buffer. The flow rate was 0.5 ml/min, and 5 ml of each fraction was batched out. […] This fraction was used as cyclic AMP phosphodiesterase.
0.1 Milliliter of an aqueous solution of each test compound of a specified concentration was mixed with 40 mmol of tris-hydrochloric acid buffer (pH 8.0, containing 50 μg of cow serum albumin and 4 mmol of MgCl2) containing predetermined 0.4 μmol of cyclic AMP (tritium cyclic AMP), and 0.2 ml of this mixed solution was used as a substrate solution.
0.2 Milliliter of the above-prepared cyclic AMP phosphodiesterase of a predetermined concentration was added to said substrate solution and the mixture was reacted at 30° C. for 20 minutes, producing tritium 5'-AMP from the tritium cyclic AMP.
The reaction system was then immersed in boiling water for 2 minutes to stop the reaction, and then this reaction solution was cooled in ice water and, for converting the produced tritium 5'-AMP into tritium adenosine, the solution was added with 0.05 ml (1 mg/ml) of snake poison as 5'-nucleotidase and reacted at 30° C. for 10 minutes. The whole amount of this reaction solutions was then added to a cation exchange resin (AG 500 W×4, 200-400 meshes, manufactured by Bio-Rad Co., column size: 0.5×1.5 cm), and the produced tritium anodesine alone was allowed to combine, washed with 6 ml of distilled water and eluted with 1.5 ml of 3 N-ammonia water. The whole quantity of the elutant was added with 10 ml of a triton-toluene type scintillator and the produced tritium adenosine was measured by a liquid scintillation counter to determine the phosphodiesterase activity.
In this way, the phosphodiesterase activation value (Vs) of the test compounds of the respective concentrations was determined, and the phosphodiesterase obstruction rate (%) was determined from said activation value (Vs) and control value (Vc) (obtained from water not containing any test compound) from the following formula: [formula]

Acute toxicity test = details: mouse, in vivo; male mice, oral administration
Method: The test compounds were administered orally to the mice and LD50 (mg/kg) of the compounds was determined.

[2] = system: rabbit platelet (collagen-induced aggregation); experiment: Platelet aggregation inhibitory effect, collagen-induced aggregation in rabbit platelet; assay type: cell-based; details: Oryctolagus cuniculus, read-out: Inhibition effect on collagen-induced aggregation in rabbit platelet; for inhibition at 100 µM: concentration of the test compound solution 10^-4 mole; for inhibition at 10 µM: concentration of the test compound solution 10^-5 mole; for inhibition at 1 µM: concentration of the test compound solution 10^-6 mole
Text: (§1) The blood sample used for the test is a 1/9 (by volume) mixture of sodium citrate and whole blood collected from rabbit. Said sample is subjected to 10-minute centrifugal separation at 1,000 r.p.m. to obtain a platelet rich plasma (PRP). The thus obtained PRP is separated, and the remaining blood sample is further subjected to 15-minute centrifugal separation at 3,000 r.p.m. to obtain a platelet poor plasma (PPP).
(§2) The number of platelets in the PRP is counted by the Brecher-Clonkite Method, and the PRP is diluted with the PPP to prepare a PRP sample with platelet concentration of 300,000/mm^3 for the adenosine diphosphate (ADP)-induced aggregation test. There is also prepared a PRP sample with platelet concentration of 450,000/mm^3 for the collagen-induced aggregation test.
(§3) 0.6 Ml of said PRP sample is added into 0.01 ml of a solution of a test compound of a predetermined concentration and the mixture is placed in a 37° C. thermostat for one minute. Then 0.07 ml of an ADP or collagen solution is added to the mixture. Transmittance of this mixture is determined and the change of transmittance is recorded by using the aggregometer at stirrer speed of 1,100 r.p.m. […] ADP is adjusted to a concentration of 7.5×10^-5 M, and the collagen solution is prepared by triturating 100 mg of collagen with 5 ml of said buffer and the supernatant is used as collagen inducer. Adenosine and acetylsalicylic acid are used as controls for the ADP-induced aggregation test and the collagen-induced aggregation test, respectively. The platelet aggregation inhibitory effect is measured in terms of percent inhibition with respect to the aggregation rate of the controls. The aggregation rate is calculated from the following formula: [formula] wherein a: transmittance of PRP
(§4) b: transmittance of PRP containing a test compound and an aggregation inducer
(§5) The compounds tested are as follows.

[3] = system: rabbit platelet (ADP-induced aggregation); experiment: Platelet aggregation inhibitory effect, ADP-induced aggregation in rabbit platelet; assay type: cell-based; details: Oryctolagus cuniculus; for inhibition at 100 µM: concentration of the test compound solution 10^-4 mole; for inhibition at 100 µM / inhibition at 10 µM: read-out: Inhibition effect on ADP-induced aggregation in rabbit platelet; for inhibition at 10 µM: concentration of the test compound solution 10^-5 mole; for inhibition at 1 µM: concentration of the test compound solution 10^-6 mole
Text: as §1, §2, §3, §4, §5

[4] = system: cerebral blood flow, bastard dog; experiment: Increasing effect of cerebral blood flow in anesthetized dog; assay type: in vivo; details: Canis lupus familiaris, iv, read-out: Increasing effect of cerebral blood flow
Method: (Test of increasing effect of cerebral blood flow)
Thus, a bastard dog (male, 12-20 kg of body weight) was fixed in a prone (position) and was anesthetized with […] of pentobarbital sodium and forced to breathe at a frequency of respiration of 20 times/minute. Then, the skull was bared and the surface bone was removed to expose the venous sinus by using a grinder and the venous blood was taken out from the venas which was cannulizated. The amount of venous blood flow was measured by using an electromagnetic blood flow meter and next measured by using drop-counter to measure the number of drops of blood per 10 seconds.
The increasing effect of cerebral blood flow was calculated by comparing the number of blood drops in 30 seconds at the peak of increasement shown before and after the administration of compound to be tested. Each of the compounds to be tested was dissolved in dimethylformamide and diluted with physiological saline solution and administered through a cannule being inserted into the profunda femoris vein.

Row | SMILES | inhibition at 1 µM ([1]; concentration of test compound solution 10^-6 mole) [%] | inhibition ([1]; concentration of test compound solution 10^-7 mole) [%] | LD50 (Acute toxicity test) [mg/kg] | inhibition at 100 µM [2] [%] | inhibition at 10 µM [2] [%] | inhibition at 1 µM [2] [%] | inhibition at 100 µM [3] [%] | inhibition at 10 µM [3] [%] | inhibition at 1 µM [3] [%] | change in vivo at 1 mg/kg [4] [%]
1 | CC(C)Cn1c(=O)n(C)c(=O)c2[nH]cnc21 [1-Methyl-3-isobutylxanthine, 1-methyl-3-isobutylxanthine, reference compound] | 63.4 | 4.2 | – | – | – | – | – | – | – | –
2 | CC(C)n1nnnc1CCCOc1ccc2[nH]c(=O)ccc2c1 [Compound 2, 6-[3-(1-Isopropyltetrazol-5-yl)propoxy]carbostyril] | – | – | > 1000 | 100 | 58.1 | 11.8 | 74.7 | 36.8 | 11.9 | –
3 | Cn1c(=O)ccc2cc(OCCCc3nnnn3C3CCCCC3)ccc21 [Compound 8, 1-Methyl-6-[3-(1-cyclohexyltetrazol-5-yl)propoxy]carbostyril] | – | – | > 1000 | 91.5 | 43.4 | 18.6 | 87.8 | 42.4 | 21.3 | –
4 | Cc1cc(=O)[nH]c2ccc(OCCCc3nnnn3C3CCCCC3)cc12 [Compound 10, 4-Methyl-6-[3-(1-cyclohexyltetrazol-5-yl)propoxy]carbostyril] | – | – | > 1000 | 100 | 100 | 18.2 | 100 | 61.7 | 28.1 | –
5 | O=C1CCc2c(cccc2OCCCc2nnnn2C2CCCCC2)N1 [Compound 11, 5-[3-(1-Cyclohexyltetrazol-5-yl)propoxy]-3,4-dihydrocarbostyril] | – | – | > 1000 | 98.4 | 42.4 | – | 90.4 | 30.2 | – | –
6 | O=c1ccc2cc(OCCCc3nnnn3C3CCCCC3)ccc2n1Cc1ccccc1 [Compound 12, 1-Benzyl-6-[3-(1-cyclohexyltetrazol-5-yl)propoxy]carbostyril] | – | – | > 1000 | 92.6 | 41.5 | 21.8 | 76.8 | 35.2 | – | –
7 | C=CCn1c(=O)ccc2cc(OCCCc3nnnn3C3CCCCC3)ccc21 [Compound 13, 1-Allyl-6-[3-(1-cyclohexyltetrazol-5-yl)propoxy]carbostyril] | – | – | > 1000 | 89.7 | 44.8 | 23.2 | 81.6 | 41.7 | – | –
8 | CC(=O)N1C(=O)CCc2cc(OCCCc3nnnn3C3CCCCC3)ccc21 [Compound 14, 1-Acetyl-6-[3-(1-cyclohexyltetrazol-5-yl)propoxy]-3,4-dihydrocarbostyril] | – | – | > 1000 | 86.8 | 47.3 | – | 79.4 | 43.2 | – | –
9 | CCc1ccc(-n2nnnc2COc2ccc3c(c2)CCC(=O)N3)cc1 [Compound 15, 6-[1-(4-Ethylphenyl)tetrazol-5-yl-methoxy]3,4-dihydrocarbostyril] | – | – | > 1000 | 100 | 35.1 | – | 78.5 | 38.9 | – | –
10 | COc1cc(C(=O)N2C(=O)CCc3cc(OCCCc4nnnn4C4CCCCC4)ccc32)cc(OC)c1OC [Compound 16, 1-(3,4,5-Trimethoxybenzoyl)-6-[3-(1-cyclohexyltetrazol-5-yl)propoxy]-3,4-dihydrocarbostyril] | – | – | > 1000 | 91.3 | 45.3 | – | 75.6 | 48.4 | – | –
11 | COc1ccc(Cc2nccc3cc(OC)c(OC)cc23)cc1OC [Papaverine, papaverine, reference compound] | – | – | – | – | – | – | – | – | – | 78.9
